Results published in US10377744B2, “Potent soluble epdxide hydrolase inhibitors” (Eicosis, LLC, priority 2014, dated 2019).
≈ marks a conversion by molar mass, not a printed value. Read-outs that look alike come from different tables or passages of the source. One block for each compound: values may come before it.

Key:
[1] = Solubility in Acetate Buffer at pH 3; type: physicochemical; conditions: for solubility: aqueous buffer, read-out: Sol (ug/mL) at pH3
[2] = Experimental logP by HPLC method; type: physicochemical; conditions: for chromatographic logP: read-out: Exp. logP
[3] = Solubility in Phosphate Buffer at pH 7.4; type: physicochemical; conditions: for solubility compared to sEH inhibitors with hydrophobic alkyl group at R7: in words
[4] = tested on: PTZ induced seizure; assay: Pentylenetetrazol (PTZ) induced seizure model; type: in vivo, mice
Description: To investigate the central nervous system penetration efficacy of sEH inhibitors a standard acute test involving the administration of pro-convulsant pentylenetetrazol (PTZ) was employed. In the subcutaneous pentylenetetrazol (PTZ) test 80 mg/kg of PTZ is administered by subcutaneous route, time to onset of first clonic seizure (clonus), time to tonic hind limb extension and lethality (tonus) are monitored for a duration of 30 min. Inhibitors of sEH were completely dissolved using PEG400 as a vehicle to give clear solutions. Inhibitors or vehicle were administered by intraperitoneal route 1 h prior to pro-convulsant at a single discriminating dose based on earlier data. This dose of PTZ produces 100% lethality within 30 min upon administration.
PTZ is a chemical which induces seizures. This assay is considered highly translatable from mice to humans.

[5] = pH titration of solubility; type: physicochemical; conditions: FIG. 9
[6] = target: T1, human sEH (Homo sapiens (Human), UniProt P34913); assay: FRET-displacement assay (Ki); type: binding; conditions: for Ki: affinity purified recombinant human sEH, FRET-displacement
[7] = target: T1, human sEH; assay: koff measurement, enzymatic t1/2 (residence time); conditions: time for half of the drug to dissociate from recombinant affinity purified human sEH
[8] = HPLC method calibrated with eLogP of 4 selected inhibitors determined by shake-flask method

T1 sequence (P34913 whole entry): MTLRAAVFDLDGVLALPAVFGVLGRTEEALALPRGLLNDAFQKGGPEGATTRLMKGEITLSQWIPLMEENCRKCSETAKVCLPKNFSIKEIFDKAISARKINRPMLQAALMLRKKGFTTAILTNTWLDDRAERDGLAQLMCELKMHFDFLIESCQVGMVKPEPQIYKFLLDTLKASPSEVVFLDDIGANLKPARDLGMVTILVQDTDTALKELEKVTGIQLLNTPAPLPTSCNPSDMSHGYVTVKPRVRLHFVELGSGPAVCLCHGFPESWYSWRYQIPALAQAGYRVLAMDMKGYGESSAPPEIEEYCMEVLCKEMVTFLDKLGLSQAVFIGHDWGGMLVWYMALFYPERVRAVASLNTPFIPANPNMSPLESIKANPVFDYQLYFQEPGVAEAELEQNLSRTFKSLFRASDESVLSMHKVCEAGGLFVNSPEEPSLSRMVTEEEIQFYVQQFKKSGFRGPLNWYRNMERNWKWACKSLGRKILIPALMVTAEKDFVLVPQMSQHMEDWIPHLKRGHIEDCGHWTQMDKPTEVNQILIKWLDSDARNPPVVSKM

Compound: 1-(3-fluoro-4-(trifluoromethyl)phenyl)-3-(1-isobutyrylpiperidin-4-yl)urea [Compound 20]
- Sol (ug/mL) at pH3 ([1]; Acetate Buffer at pH 3): 6 ug/mL

Compound: CC(=O)N1CCC(NC(=O)NC23CC4CC(CC(C4)C2)C3)CC1 [APAU, reference compound]
- chromatographic logP [2]: 1.5
- solubility ([3]; aqueous buffer, Phosphate Buffer at pH 7.4): 277 µg/mL (≈ 867 µM)

Compound: O=C(Nc1ccc(OC(F)(F)F)cc1)NC1CCN(C(=O)C2CCOCC2)CC1 [Compound 1, 1-(1-(tetrahydro-2H-pyran-4-carbonyl)piperidin-4-yl)-3-(4-(trifluoromethoxy)phenyl)urea]
- chromatographic logP [2]: 3.26

Compound: Cc1occc1C(=O)N1CCC(NC(=O)Nc2ccc(OC(F)(F)F)cc2)CC1 [Compound 6, 1-(1-(2-methylfuran-3-carbonyl)piperidin-4-yl)-3-(4-(trifluoromethoxy)phenyl)urea]
- chromatographic logP [2]: 4.3

Compound: O=C(Nc1ccc(C(F)(F)F)cc1)NC1CCN(C(=O)C2=COCC2)CC1 [Compound 12, 1-(1-(4,5-dihydrofuran-3-carbonyl)piperidin-4-yl)-3-(4-(trifluoromethyl)phenyl)urea]
- chromatographic logP [2, 8]: 3.37

Compound: O=C(Nc1ccc(C(F)(F)F)cc1)NC1CCN(C(=O)C2CCCOC2)CC1 (stereo not shown) [Compound 15, 1-(1-(tetrahydro-2H-pyran-3-carbonyl)piperidin-4-yl)-3-(4-(trifluoromethyl)phenyl)urea]
- chromatographic logP [2, 8]: 3.41

Compound: O=C(Nc1ccc(C(F)(F)F)cc1)NC1CCN(C(=O)c2cc[nH]c2)CC1 [Compound 16, 1-(1-(1H-pyrrole-3-carbonyl)piperidin-4-yl)-3-(4-(trifluoromethyl)phenyl)urea]
- chromatographic logP [2, 8]: 3.26

Compound: O=C(Nc1ccc(OC(F)(F)F)c(F)c1)NC1CCN(C(=O)C2CC2)CC1 [Compound 24, 1-(1-(cyclopropanecarbonyl)piperidin-4-yl)-3-(3-fluoro-4-(trifluoromethoxy)phenyl)urea]
- chromatographic logP [2]: 4.19

Compound: CC[C@H](C)C(=O)N1CCC(NC(=O)Nc2ccc(OC(F)(F)F)c(F)c2)CC1 [Compound 26, (S)-1-(3-fluoro-4-(trifluoromethoxy)phenyl)-3-(1-(2-methylbutanoyl)piperidin-4-yl)urea]
- chromatographic logP [2, 8]: 4.16

Compound: O=C(Nc1ccc(OC(F)(F)F)c(F)c1)NC1CCN(C(=O)C2CCCOC2)CC1 (stereo not shown) [Compound 27]
- solubility compared to sEH inhibitors with hydrophobic alkyl group at R7 [3]: remarkably enhance the solubility
- solubility ([1]; Acetate Buffer at pH 3): 522 µg/mL (≈ 1200 µM)
- solubility at pH 3 compared to APAU ([1]; pH 3, in words): much better than the most soluble 1,3-disubstituted urea sEH inhibitors

Compound: O=C(Nc1ccc(OC(F)(F)F)c(F)c1)NC1CCN(C(=O)C2CCOCC2)CC1 [Compound 29, 1-(3-fluoro-4-(trifluoromethoxy)phenyl)-3-(1-(tetrahydro-2H-pyran-4-carbonyl)piperidin-4-yl)urea]
- onset of the tonic phase of seizure ([4]; 0.3 mpk, wild type Swiss mice, subcutaneous PTZ, p<0.05): delayed onset of the tonic phase of seizure
- protection from convulsions and associated lethality ([4]; mice, PTZ 80 mg/kg subcutaneous, inhibitor 1 h prior): protect mice from convulsions and associated lethality
- solubility in pH titration [5]: increases dramatically when the pH is below 4
- chromatographic logP [2, 8]: 3.73
- solubility compared to sEH inhibitors with hydrophobic alkyl group at R7 [3]: remarkably enhance the solubility
- solubility ([1]; Acetate Buffer at pH 3): 206 µg/mL (≈ 475 µM)

Compound: O=C(Nc1ccc(OC(F)(F)F)c(F)c1)NC1CCN(C(=O)C2(C(F)(F)F)CC2)CC1 [Compound 30]
- chromatographic logP [2, 8]: 5.94

Compound: CCC(=O)N1CCC(NC(=O)Nc2ccc(C(F)(F)F)c(F)c2)CC1 [Compound 31, 1-(3-fluoro-4-(trifluoromethyl)phenyl)-3-(1-propionylpiperidin-4-yl)urea]
- chromatographic logP [2, 8]: 3.76

Compound: O=C(Nc1ccc(C(F)(F)F)c(F)c1)NC1CCN(C(=O)C2(C(F)(F)F)CC2)CC1 [Compound 36, 1-(3-fluoro-4-(trifluoromethyl)phenyl)-3-(1-(1-(trifluoromethyl)cycloproropane-1-carbonyl)piperidin-4-yl)urea]
- Potency Enhancement ([6]; Ki of original inhibitor / Ki of meta-F substituted inhibitor): 1
- chromatographic logP [2, 8]: 5.52

Compound: CC[C@H](C)C(=O)N1CCC(NC(=O)Nc2ccc(OC(F)(F)F)c(Cl)c2)CC1 [Compound 44, (S)-1-(3-chloro-4-(trifluoromethoxy)phenyl)-3-(1-(2-methylbutanoyl)piperidin-4-yl)urea]
- chromatographic logP [2, 8]: 7.7
- t1/2 (min) human sEH [7]: 10 min

Compound: CC(C)C(=O)N1CCC(NC(=O)Nc2ccc(C(F)(F)F)cc2)CC1 [Compound 2389, reference compound]
- Exp. logP [2]: 3.37

Compound: CC(C)C(=O)N1CCC(NC(=O)Nc2ccc(OC(F)(F)F)cc2)CC1 [Compound 2422, reference compound]
- Exp. logP [2]: 3.56

More lines, now with the values ahead:

- Exp. logP [2]: 5.11
Compound: 2-(1-(cyclopropanecarbonyl)piperidin-4-yl)-N-(3-fluoro-4-(trifluoromethoxy)phenyl)acetamide [Compound 48]

- chromatographic logP [2, 8]: 3.94
Compound: O=C(Nc1ccc(C(F)(F)F)c(F)c1)NC1CCN(C(=O)C2CC2)CC1 [Compound 32, 1-(1-(cyclopropanecarbonyl)piperidin-4-yl)-3-(3-fluoro-4-(trifluoromethyl)phenyl)urea]

- chromatographic logP [2, 8]: 3.41
Compound: O=C(Nc1ccc(C(F)(F)F)c(F)c1)NC1CCN(C(=O)[C@@H]2CCOC2)CC1 [Compound 33, (R)-1-(3-fluoro-4-(trifluoromethyl)phenyl)-3-(1-(tetrahydrofuran-3-carbonyl)piperidin-4-yl)urea]

- chromatographic logP [2, 8]: 3.84
Compound: O=C(Nc1ccc(C(F)(F)F)c(F)c1)NC1CCN(C(=O)C2CCCOC2)CC1 (stereo not shown) [Compound 35, 1-(3-fluoro-4-(trifluoromethyl)phenyl)-3-(1-(tetrahydro-2H-pyran-3-carbonyl)piperidin-4-yl)urea]

- chromatographic logP [2, 8]: 3.52
Compound: O=C(Nc1ccc(C(F)(F)F)c(F)c1)NC1CCN(C(=O)C2CCOCC2)CC1 [Compound 37, 1-(3-fluoro-4-(trifluoromethyl)phenyl)-3-(1-(tetrahydro-2H-pyran-4-carbonyl)piperidin-4-yl)urea]

- Ki [6]: 1.95 ± 0.3 nM
Compound: O=C(Nc1ccc(OC(F)(F)F)c(F)c1)Nc1ccc(OC(F)(F)F)c(F)c1 [Compound 38]

- Ki [6]: 10.1 ± 1.8 nM
Compound: O=C(Nc1ccc(OC(F)(F)F)c(F)c1)NC1CCN(C(=O)N2CCC(NC(=O)Nc3ccc(OC(F)(F)F)c(F)c3)CC2)CC1 [Compound 39]

- chromatographic logP [2, 8]: 5.94
Compound: CCOC(=O)N1CCC(NC(=O)Nc2ccc(OC(F)(F)F)c(F)c2)CC1 [Compound 40, ethyl 4-(3-(3-fluoro-4-(trifluoromethoxy)phenyl)ureido)piperidine-1-carboxylate]

- chromatographic logP [2, 8]: 5.46
Compound: CCOC(=O)N1CCC(NC(=O)Nc2ccc(C(F)(F)F)c(F)c2)CC1 [Compound 41, ethyl 4-(3-(3-fluoro-4-(trifluoromethyl)phenyl)ureido)piperidine-1-carboxylate]

- chromatographic logP [2, 8]: 3.93
Compound: O=C(Nc1ccc(OC(F)(F)F)c(F)c1)NC1CCN(C(=O)N2CCOCC2)CC1 [Compound 43, 1-(3-fluoro-4-(trifluoromethoxy)phenyl)-3-(1-(morpholine-4-carbonyl)piperidin-4-yl)urea]

- chromatographic logP [2, 8]: 8.07
Compound: CC[C@H](C)C(=O)N1CCC(NC(=O)Nc2ccc(OC(F)(F)F)c(Br)c2)CC1 [Compound 45]

- chromatographic logP [2, 8]: 9.02
Compound: CC[C@H](C)C(=O)N1CCC(NC(=O)Nc2ccc(OC(F)(F)F)c(C(F)(F)F)c2)CC1 [Compound 46, (S)-1-(1-(2-methylbutanoyl)piperidin-4-yl)-3-(4-(trifluoromethoxy)-3-(trifluoromethyl)phenyl)urea]

- chromatographic logP [2, 8]: 10.6
Compound: CC[C@H](C)C(=O)N1CCC(NC(=O)Nc2ccc(OC(F)(F)F)c(OC(F)(F)F)c2)CC1 [Compound 47]
